Source: patent EP1301165B1, “USE OF AN ALLOMELANIN FOR THE TREATMENT OF INFLAMMATION OR IRRITANCY CAUSED BY DHA AND/OR A SURFACTANT” (Croda Chemicals International Limited, priority 2000, dated 2002)
Values belong to the compound of their own block, whether it stands above or below them.

What was measured:
[1] = Fragrance stabilisation test (eau de toilette, daily 37°C / 4°C / sunlight cycle for 7 days, aroma assessed); conditions: daily cycle repeated for 7 days
Experimental: To test the stability of a fragrance in the form of an eau de toilette ("EDT"), we use aliquots of the EDT to which are added two or more concentrations of our melanin ("EDT'') and, as reference examples, two concentrations of BHT (butyrated hydroxytoluene, a known antioxidant used in cosmetics). A further aliquot of the original eau de toilette is used as a control. Test samples are made in clear glass bottles that are half filled with the test samples. This is to allow some penetration of UV light and sufficient gas in the headspace to allow oxidative deterioration of the fragrance to occur.
Samples are stored at 37°C overnight, then are cooled to 4°C and then allowed to stand in direct sunlight, for the rest of the day, being returned to 37°C. In addition bottles are opened before and after the 37°C incubation. This daily cycle is repeated for 7 days and the aromas of each assessed.

Water solubility = format: physicochemical
Excerpt: In contrast, conventional melanins are virtually insoluble. Our melanin derived from caffeic acid has a solubility of about 220g/l. Since caffeic acid has a solubility of below 1g/l, and polymerisation generally leads to a reduction in solubility, this is quite remarkable.

skin = assay: Surfactant sensitivity: skin irritation by 24 hour SLES patch, skin colour by Chroma Meter; format: in vivo, human
Experimental: The effectiveness of our melanin in reducing skin irritation due to a surfactant was investigated. Two human subjects were used. The effect of applying to skin for 24 hours a patch containing a 70% solution of sodium lauryl ether sulphate ('SLES') was compared with the effect of applying an identical patch also containing 0.3% of our melanin ('M'). The colour of the treated skin was monitored for several days using a Chroma Meter. The changes in degrees of redness are tabulated below.

fragrance stability (aroma) [1]: markedly superior to the control
Compound: Cc1cc(C(C)(C)C)c(O)c(C(C)(C)C)c1 [BHT, butyrated hydroxytoluene]

solubility (Water solubility): < 1000 µg/mL
Compound: O=C(O)/C=C/c1ccc(O)c(O)c1 [caffeic acid]

Compound: sodium lauryl ether sulphate [SLES]
Redness Change (skin; Subject 1, Day 1, patch applied for 24 hours): +6.3 | Redness Change (skin; Subject 1, Day 2): +4.2 | Redness Change (skin; Subject 1, Day 6): +0.3 | Redness Change (skin; Subject 2, Day 1, patch applied for 24 hours): +3.5 | Redness Change (skin; Subject 2, Day 2): +2.3 | Redness Change (skin; Subject 2, Day 7): +0.6
